Measured values taken from PMC11239005, “Preclinical studies of RA475, a guanidine-substituted spirocyclic candidate RPN13/ADRM1 inhibitor for treatment of ovarian cancer” (PLOS ONE, 2024).

Molecular target: T1, RPN13 (Homo sapiens, UniProt Q16186)
T1 construct: performed the labeling assay after treating ovarian cancer cell lysates (ES2 and SKOV3) in the presence of titrated doses of RA475; endogenous in cells; host or cells: ES2 and SKOV3 ovarian cancer cell lysates
Test: Up284B competition labelling in ES2 and SKOV3 cell lysate
Format: binding
Conditions: titrated RA475, bortezomib 1 μM, Up284B 5 μM
Description: Clarified cell lysate in MPER buffer (Pierce) was pretreated with streptavidin-coated magnetic beads for 45 min at 4°C to deplete non-specific biotinylated proteins in the cell lysate. […] Next, the samples were mixed with Laemmli sample buffer (BioRad) and boiled for 5 min. The proteins were separated using a 4–15% Bio-Rad Mini-PROTEAN SDS-PAGE gel (1 h at 100 V), and transferred to PVDF membrane overnight at 4°C (24 V). The membrane was blocked with 5% (w/v) BSA in phosphate buffered saline containing 0.1% (v/v) Tween 20 (PBST) for 1 h at RT, and washed for 20 min (3X with PBST). Then the membrane was probed with HRP-streptavidin (1:10,000 in PBST) for 1 h at RT, washed for 30 min (3X with PBST), and developed using HyGLO chemiluminescent detection reagent (Denville) and visualized using a Biorad Chemidoc imager.
Fig 2 RA475 binds to RPN13 and induces rapid apoptosis. […] C, D) RA475 competition labelling experiment. C) ES2 D) SKOV3 clarified cell lysate (40 μg/sample) in MPER buffer was pretreated with streptavidin-coated magnetic beads for 45 min at 4°C to deplete non-specific biotinylated proteins in the cell lysate. […] Next, the samples were mixed with Laemmli sample buffer (BioRad) and boiled for 5 min. The proteins were separated using a 4–15% Bio-Rad Mini-PROTEAN SDS-PAGE gel (1 h at 100 V), and transferred to PVDF membrane overnight at 4°C (24 V). […]

T1 sequence (Q16186 whole entry): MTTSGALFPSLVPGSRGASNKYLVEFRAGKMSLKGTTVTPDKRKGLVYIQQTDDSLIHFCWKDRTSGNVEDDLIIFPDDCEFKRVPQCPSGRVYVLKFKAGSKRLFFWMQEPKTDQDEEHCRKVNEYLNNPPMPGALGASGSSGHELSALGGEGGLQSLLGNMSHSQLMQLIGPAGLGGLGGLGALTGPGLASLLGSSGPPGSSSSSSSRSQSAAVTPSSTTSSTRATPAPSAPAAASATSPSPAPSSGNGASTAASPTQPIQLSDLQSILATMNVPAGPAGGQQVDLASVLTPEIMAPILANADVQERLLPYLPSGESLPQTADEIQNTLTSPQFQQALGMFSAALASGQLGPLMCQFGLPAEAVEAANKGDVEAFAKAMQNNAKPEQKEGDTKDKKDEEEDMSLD

Cl.Cl.N#Cc1ccc(/C=C2/C(=O)/C(=C/c3ccc(C#N)cc3)C23CCN(C(=N)N)CC3)cc1 [RA475, 1,3-bis((E)-4-cyanobenzylidene)-2-oxo-7-azaspiro[3.5]nonane-7-carboximidamide dihydrochloride]
competition with Up284B for binding to RPN13: efficiently competes
